Reference: DBAASP
Values after ≈ are worked out from the molar mass of the structure shown.

Assays:
Test in all cases: ≥ marks a high value that may be exact or a test limit, other limits are often not marked, values filed in µg/mL are converted to µM
[1] = system: Escherichia coli ATCC 25922
Bacillus subtilis = system: Bacillus subtilis
[2] = system: Candida albicans ATCC 2002
[3] = system: Staphylococcus aureus ATCC 2592
[4] = system: Staphylococcus aureus NCTC 8325
[5] = system: Candida albicans ATCC 90028
[6] = system: Pseudomonas aeruginosa Ps4
[7] = system: Pseudomonas aeruginosa CMCCB 10104

Row | Compound | MIC [1] | MIC [4] | MIC [6] | further results
1 | CC[C@H](C)[C@H](NC(=O)[C@H](CCCCN)NC(=O)CNC(=O)[C@H](CC(C)C)NC(=O)[C@H](CC(C)C)NC(=O)[C@H](CO)NC(=O)[C@H](C)NC(=O)[C@H](CC(C)C)NC(=O)[C@H](CC(C)C)NC(=O)CNC(=O)CNC(=O)[C@H](CC(C)C)NC(=O)[C@@H](N)Cc1ccccc1)C(=O)O [FLGGLLASLLGKI] | 19.2 µM (≈ 25 µg/mL) |  |  | MIC (Bacillus subtilis): 2.38 µM (≈ 3.1 µg/mL); MIC [2]: 1.23 µM (≈ 1.6 µg/mL); MIC [3]: 2.38 µM (≈ 3.1 µg/mL)
2 | CC[C@H](C)[C@H](NC(=O)[C@H](CC(C)C)NC(=O)[C@H](CC(N)=O)NC(=O)[C@@H](NC(=O)[C@H](CC(C)C)NC(=O)[C@@H](NC(=O)[C@@H]1CCCN1C(=O)[C@H](CC(C)C)NC(=O)[C@@H](N)Cc1ccccc1)[C@@H](C)CC)[C@@H](C)CC)C(=O)N[C@@H](Cc1cnc[nH]1)C(=O)N[C@@H](CCCCN)C(=O)NCC(=O)N[C@@H](CC(C)C)C(=O)N[C@@H](CC(C)C)C(N)=O [FLPILINLIHKGLL] | > 150 µM | ≥ 125 µM |  | MIC [5]: ≥ 150 µM
3 | CC[C@H](C)[C@H](NC(=O)[C@H](C)NC(=O)[C@H](CO)NC(=O)[C@H](CC(C)C)NC(=O)[C@@H](N)Cc1ccccc1)C(=O)N[C@H](C(=O)N[C@@H](CO)C(=O)N[C@@H](CC(C)C)C(=O)N[C@@H](CC(C)C)C(=O)NCC(=O)N[C@@H](CCCCN)C(=O)N[C@@H](CC(C)C)C(=O)N[C@@H](CC(C)C)C(N)=O)[C@@H](C)O [FLSAITSLLGKLL] |  | 6 µM (≈ 8.25 µg/mL) |  | 
4 | CC[C@H](C)[C@H](NC(=O)[C@H](CC(N)=O)NC(=O)[C@H](CCCN=C(N)N)NC(=O)[C@H](CCC(N)=O)NC(=O)[C@H](Cc1c[nH]c2ccccc12)NC(=O)[C@@H](N)Cc1ccccc1)C(=O)N[C@@H](Cc1ccccc1)C(=O)N[C@@H](CCCCN)C(=O)N[C@H](C(=O)N[C@@H](CCCN=C(N)N)C(N)=O)C(C)C [FWQRNIFKVR] |  |  | ≥ 179 µM | 
5 | CC[C@H](C)[C@H](NC(=O)[C@H](CC(N)=O)NC(=O)[C@H](CCCN=C(N)N)NC(=O)[C@H](CCC(N)=O)NC(=O)[C@H](Cc1c[nH]c2ccccc12)NC(=O)[C@@H](N)Cc1ccccc1)C(=O)N[C@@H](CCCN=C(N)N)C(=O)N[C@@H](Cc1ccccc1)C(=O)N[C@H](C(=O)N[C@@H](CCCN=C(N)N)C(N)=O)C(C)C [FWQRNIRFVR] |  |  | ≥ 176 µM | 
6 | CC[C@H](C)[C@H](NC(=O)[C@H](CC(N)=O)NC(=O)[C@H](CCCN=C(N)N)NC(=O)[C@H](CCC(N)=O)NC(=O)[C@H](Cc1c[nH]c2ccccc12)NC(=O)[C@@H](N)Cc1ccccc1)C(=O)N[C@@H](CCCN=C(N)N)C(=O)N[C@@H](Cc1c[nH]c2ccccc12)C(=O)N[C@@H](CCCN=C(N)N)C(=O)N[C@@H](CCCN=C(N)N)C(N)=O [FWQRNIRWRR] |  |  | ≥ 165 µM | 
7 | CC[C@H](C)[C@H](NC(=O)[C@H](CC(N)=O)NC(=O)[C@H](CCCN=C(N)N)NC(=O)[C@H](CCC(N)=O)NC(=O)[C@H](Cc1c[nH]c2ccccc12)NC(=O)[C@@H](N)Cc1ccccc1)C(=O)N[C@@H](CO)C(=O)N[C@@H](CCCCN)C(=O)N[C@H](C(=O)N[C@@H](CCCN=C(N)N)C(N)=O)C(C)C [FWQRNISKVR] |  |  | ≥ 187 µM | 
8 | CC[C@H](C)[C@H](N)C(=O)N[C@@H](CC(C)C)C(=O)NCC(=O)N1CCC[C@H]1C(=O)N[C@H](C(=O)N[C@@H](CC(C)C)C(=O)N[C@@H](CO)C(=O)N[C@@H](CCSC)C(=O)N[C@H](C(=O)NCC(=O)N[C@@H](CO)C(=O)N[C@@H](C)C(=O)N[C@@H](CC(C)C)C(=O)NCC(=O)NCC(=O)N[C@@H](CC(C)C)C(=O)N[C@H](C(=O)N[C@@H](CCCCN)C(=O)N[C@@H](CCCCN)C(=O)N[C@H](C(N)=O)[C@@H](C)CC)[C@@H](C)CC)C(C)C)C(C)C [ILGPVLSMVGSALGGLIKKI] | 10.2 µM (≈ 20 µg/mL) |  |  | MIC [7]: 2.03 µM (≈ 4 µg/mL); MIC [2]: 1.02 µM (≈ 2 µg/mL); MIC [3]: 1.02 µM (≈ 2 µg/mL)
9 | CC[C@H](C)[C@H](N)C(=O)N[C@@H](CC(C)C)C(=O)N1CCC[C@H]1C(=O)N[C@@H](CC(C)C)C(=O)N[C@@H](CC(C)C)C(=O)N[C@@H](CC(C)C)C(=O)NCC(=O)N[C@@H](CCCCN)C(=O)N[C@H](C(=O)N[C@H](C(=O)N[C@H]1CSSC[C@@H](C(=O)O)NC(=O)[C@H](CCCCN)NC(=O)[C@H](CCCCN)NC(=O)[C@H]([C@@H](C)O)NC(=O)[C@H]([C@@H](C)CC)NC(=O)[C@H](C)NC1=O)C(C)C)C(C)C [ILPLLLGKVVCAITKKC] | 30 µM (≈ 54.3 µg/mL) | 7 µM (≈ 12.7 µg/mL) |  | 
10 | CC[C@H](C)[C@H](N)C(=O)N[C@@H](CC(C)C)C(=O)N1CCC[C@H]1C(=O)N[C@@H](CC(C)C)C(=O)N[C@H](C(=O)NCC(=O)N[C@@H](CC(N)=O)C(=O)N[C@@H](CC(C)C)C(=O)N[C@@H](CC(C)C)C(=O)N[C@@H](CC(N)=O)C(=O)N[C@@H](CC(=O)O)C(=O)N[C@@H](CC(C)C)C(=O)N[C@@H](CC(C)C)C(N)=O)C(C)C [ILPLVGNLLNDLL] | > 100 µM | ≥ 100 µM |  | 
11 | CC[C@H](C)[C@H](N)C(=O)N[C@@H](CC(N)=O)C(=O)N[C@@H](Cc1c[nH]c2ccccc12)C(=O)N[C@@H](CCCCN)C(=O)NCC(=O)N[C@H](C(=O)N[C@@H](C)C(=O)N[C@@H](C)C(=O)N[C@@H](CCSC)C(=O)N[C@@H](CCCCN)C(=O)N[C@@H](CCCCN)C(=O)N[C@@H](CC(C)C)C(=O)N[C@@H](CC(C)C)C(N)=O)[C@@H](C)CC [INWKGIAAMKKLL] | 10.1 µM (≈ 15 µg/mL) |  |  | MIC [2]: 5.05 µM (≈ 7.5 µg/mL); MIC [3]: 2.49 µM (≈ 3.7 µg/mL)
